The target of data set [1] is T1, Adenosine receptor A1 (Homo sapiens) (UniProt P30542).
T1 sequence (whole entry): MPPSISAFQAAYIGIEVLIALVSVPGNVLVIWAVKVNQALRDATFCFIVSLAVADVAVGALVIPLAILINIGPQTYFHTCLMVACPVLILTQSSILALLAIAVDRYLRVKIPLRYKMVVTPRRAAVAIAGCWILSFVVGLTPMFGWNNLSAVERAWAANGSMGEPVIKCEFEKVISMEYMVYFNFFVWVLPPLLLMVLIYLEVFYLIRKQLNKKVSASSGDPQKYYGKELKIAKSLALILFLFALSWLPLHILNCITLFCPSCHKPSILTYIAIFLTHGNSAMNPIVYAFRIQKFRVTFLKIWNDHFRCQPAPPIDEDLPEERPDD
As to the kind of experiment: Displacement [3H]DPCPX from human adenosine A1 receptor expressed in CHO cell membranes at 1 uM incubated for 60 mins by scintillation counting method relative to control.

The target of data set [2] is T2, Adenosine receptor A3 (Homo sapiens) (UniProt P0DMS8).
T2 sequence (whole entry): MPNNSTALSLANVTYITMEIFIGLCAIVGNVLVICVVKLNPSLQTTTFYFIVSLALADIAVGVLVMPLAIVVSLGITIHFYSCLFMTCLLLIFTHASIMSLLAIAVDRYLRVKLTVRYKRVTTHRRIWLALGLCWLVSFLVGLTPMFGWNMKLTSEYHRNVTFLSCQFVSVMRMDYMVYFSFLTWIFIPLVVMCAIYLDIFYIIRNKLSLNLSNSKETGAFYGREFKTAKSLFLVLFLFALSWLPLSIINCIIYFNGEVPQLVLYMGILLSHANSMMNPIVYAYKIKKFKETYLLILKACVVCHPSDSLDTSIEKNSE
Nature of the data set: Displacement [3H]NECA from adenosine A3 receptor in human HeLa cell membranes at 1 uM incubated for 180 mins by scintillation counting method relative to control.

In data set [3] the target is T3, Adenosine receptor A2a (Homo sapiens, UniProt P29274). As to the kind of experiment: Displacement [3H]ZM241385 from adenosine A2A receptor in human HeLa cell membranes incubated for 30 mins by scintillation counting method.
T3 sequence (P29274 whole entry): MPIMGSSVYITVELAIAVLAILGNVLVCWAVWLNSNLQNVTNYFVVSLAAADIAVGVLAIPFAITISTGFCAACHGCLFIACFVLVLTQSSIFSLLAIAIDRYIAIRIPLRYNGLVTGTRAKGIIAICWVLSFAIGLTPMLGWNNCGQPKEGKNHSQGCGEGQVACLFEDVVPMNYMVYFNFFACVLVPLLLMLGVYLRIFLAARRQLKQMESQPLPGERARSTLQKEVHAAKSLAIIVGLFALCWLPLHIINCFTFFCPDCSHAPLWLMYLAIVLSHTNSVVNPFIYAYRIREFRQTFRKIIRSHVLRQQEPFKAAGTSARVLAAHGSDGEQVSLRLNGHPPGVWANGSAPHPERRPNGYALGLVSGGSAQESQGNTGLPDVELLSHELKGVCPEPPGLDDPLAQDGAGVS
The target of the next data set is T4, Adenosine receptor A2b (Homo sapiens, UniProt P29275).
T4 sequence (P29275 whole entry): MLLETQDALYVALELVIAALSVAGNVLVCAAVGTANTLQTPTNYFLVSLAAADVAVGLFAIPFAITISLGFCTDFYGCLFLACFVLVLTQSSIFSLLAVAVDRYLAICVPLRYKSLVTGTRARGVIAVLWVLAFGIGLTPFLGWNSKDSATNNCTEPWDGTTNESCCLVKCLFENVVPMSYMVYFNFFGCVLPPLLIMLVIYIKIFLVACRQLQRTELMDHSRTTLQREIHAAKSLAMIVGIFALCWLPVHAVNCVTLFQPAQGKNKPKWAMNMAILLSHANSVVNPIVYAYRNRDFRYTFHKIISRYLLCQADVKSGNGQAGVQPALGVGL
Nature of the data set: Displacement [3H]DPCPX from human adenosine A2B receptor expressed in HEK293 cell membranes incubated for 60 mins by scintillation counting method.

The next data set has as its target T5, Adenosine receptor A3 (Homo sapiens, UniProt P0DMS8).
T5 sequence (P0DMS8 whole entry): T2 sequence (whole entry)
As to the kind of experiment: Displacement [3H]NECA from adenosine A3 receptor in human HeLa cell membranes incubated for 180 mins by scintillation counting method.

Another data set deals with T6, Adenosine receptor A1 (Homo sapiens, UniProt P30542).
T6 sequence (P30542 whole entry): T1 sequence (whole entry)
Nature of the data set: Displacement [3H]DPCPX from human adenosine A1 receptor expressed in CHO cell membranes incubated for 60 mins by scintillation counting method.

For data set [4], the target named is T3, Adenosine receptor A2a. Nature of the data set: Displacement [3H]ZM241385 from adenosine A2A receptor in human HeLa cell membranes at 1 uM incubated for 30 mins by scintillation counting method relative to control.
In data set [5] the target is T7, CYP2D6 (Homo sapiens, UniProt P10635). Nature of the data set: Inhibition of CYP2D6 (unknown origin) expressed in insect cell microsomes at 10 uM using dibenzylfluorescein substrate by fluorescence based assay relative to control. Conditions: insect cell microsomes expressing CYP2D6, probe dibenzylfluorescein. In kind it is ADME.
T7 sequence (P10635 whole entry): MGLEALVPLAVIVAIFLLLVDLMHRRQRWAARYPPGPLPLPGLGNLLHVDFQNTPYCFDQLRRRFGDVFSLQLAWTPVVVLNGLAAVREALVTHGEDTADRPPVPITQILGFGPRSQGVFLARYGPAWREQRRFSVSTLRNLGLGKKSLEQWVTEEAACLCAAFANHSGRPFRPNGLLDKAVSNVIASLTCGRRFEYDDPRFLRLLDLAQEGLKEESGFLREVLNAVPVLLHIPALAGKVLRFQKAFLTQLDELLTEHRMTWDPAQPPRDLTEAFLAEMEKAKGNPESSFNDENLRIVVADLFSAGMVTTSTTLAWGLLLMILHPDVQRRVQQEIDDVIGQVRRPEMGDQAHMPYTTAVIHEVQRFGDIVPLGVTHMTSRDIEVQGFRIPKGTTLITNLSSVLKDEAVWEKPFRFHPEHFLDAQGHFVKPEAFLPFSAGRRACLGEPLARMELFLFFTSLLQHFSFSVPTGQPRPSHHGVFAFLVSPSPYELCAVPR
Data set [6] has as its target T7, CYP2D6. As to the kind of experiment: Inhibition of CYP2D6 (unknown origin) expressed in insect cell microsomes at 1 uM using dibenzylfluorescein substrate by fluorescence based assay relative to control. The settings on record: insect cell microsomes expressing CYP2D6, probe dibenzylfluorescein. The format is ADME.
The next data set has as its target Cytochrome P450 3A4 (Homo sapiens, UniProt P08684). As to the kind of experiment: Inhibition of CYP3A4 (unknown origin) expressed in insect cell microsomes using dibenzylfluorescein substrate by fluorescence based assay. In kind it is ADME.
Data set [7] can be described thus: Drug metabolism in human liver microsomes after 60 mins in presence of NADP,glucose-6-phosphate and glucose-6-phosphate dehydrogenase by UPLC-MS/MS analysis. Conditions: read-out: Drug metabolism. In kind it is ADME, Microsome. (In general: Liver microsomes are vesicles of endoplasmic reticulum, rich in cytochrome P450 enzymes.)
Data set [8] is described as follows: Solubility in pH 7 PBS incubated for 4 hrs by nephelometry. The format is physicochemical.

As usually defined, the inhibition is the drop in the measured response relative to a control, in per cent. Low readings indicate little suppression, high ones strong suppression. The term Ki denotes a measure of affinity in units of concentration, obtained from inhibition or displacement. Read a low Ki as tighter binding. The IC50 is the concentration needed to halve the response being measured. Higher therefore signals weaker potency in that assay. The solubility (kinetic) is solubility judged after dilution from a stock solution rather than from solid.

Cytochrome P450 3A4, sequence (P08684 whole entry): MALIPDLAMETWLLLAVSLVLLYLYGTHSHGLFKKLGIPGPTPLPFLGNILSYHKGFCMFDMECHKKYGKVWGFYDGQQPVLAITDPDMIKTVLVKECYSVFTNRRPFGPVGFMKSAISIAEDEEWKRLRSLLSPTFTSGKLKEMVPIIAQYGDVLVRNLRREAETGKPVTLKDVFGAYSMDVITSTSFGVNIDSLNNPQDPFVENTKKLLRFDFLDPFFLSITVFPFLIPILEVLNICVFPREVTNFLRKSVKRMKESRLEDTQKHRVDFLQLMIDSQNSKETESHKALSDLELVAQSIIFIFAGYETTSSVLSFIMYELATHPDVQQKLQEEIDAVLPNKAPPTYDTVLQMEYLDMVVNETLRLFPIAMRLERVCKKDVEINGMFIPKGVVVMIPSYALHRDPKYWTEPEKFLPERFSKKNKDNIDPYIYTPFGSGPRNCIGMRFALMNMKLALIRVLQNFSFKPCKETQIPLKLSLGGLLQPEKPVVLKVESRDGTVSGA

`CCOC(=O)C1=C(C)Nc2nc3ccccc3n2C1c1ncco1` (racemic): the values for the inhibition in data set [1] and in [2] were 8% and 10%, respectively. In addition, the Ki turned out to be 2 nM on Adenosine receptor A2a [3] and 769 nM on Adenosine receptor A2b.
For `CC1=C(C(=O)OC(C)C)C(c2ncco2)n2c(nc3ccccc32)N1` (racemic) the same measures were 1%, 10%, 1 nM and 708 nM.
`CCOC(=O)C1=C(C)Nc2nc3ccccc3n2C1c1cnco1` (racemic): the inhibitory constant (Ki) on Adenosine receptor A3 came out at 418 nM; at Adenosine receptor A2a [3], 282 nM; at Adenosine receptor A1 it was 233 nM; on Adenosine receptor A2b, 508 nM.
As for `CC1=C(C(=O)OC(C)C)C(c2cnco2)n2c(nc3ccccc32)N1` (racemic), the inhibition in [2] was 39%; at Adenosine receptor A2a [4], 38%. This compound also displayed a Ki on Adenosine receptor A1 of 301 nM.
With `CCOC(=O)C1=C(C)Nc2nc3ccccc3n2C1c1ncc[nH]1` (racemic), the inhibition amounted to 6% in data set [1] and 1% in [2]. The same compound came in with an inhibition at 10 µM at CYP2D6 [5] of 18%. This compound also had an inhibition at 1 µM against CYP2D6 [6] of 8%. The compound also had an IC50 on Cytochrome P450 3A4 of 4540 nM. Moreover, the Ki is 5 nM on Adenosine receptor A2a [3] and 402 nM on Adenosine receptor A2b.
Turning to `CCOC(=O)C1=C(C)Nc2nc3ccccc3n2C1c1ccns1` (racemic), the values for the inhibition (in data set [2]; on Adenosine receptor A2a [4]) were 8% and 7%, respectively. The Ki is 20.2 nM at Adenosine receptor A1 and 98.7 nM on Adenosine receptor A2b.
At CYP2D6 [5], `CCOC(=O)C1=C(C)Nc2nc3ccccc3n2C1c1cocn1` (racemic) yielded an inhibition at 10 µM of 19%. The compound further had an inhibition at 1 µM on CYP2D6 [6] of 13%. The compound also yielded an IC50 against Cytochrome P450 3A4 of 6410 nM. Also, the metabolised at 1 h in data set [7] turned out to be 5.62%. The same compound displayed a solubility (kinetic) at 4 h in [8] greater than 20 µM.
As to `CCOC(=O)C1=C(C)Nc2nc3ccccc3n2C1c1nccs1` (racemic), the results for the inhibition in [1] and in data set [2] were 3% and 1%, respectively. Besides, the results for the Ki at Adenosine receptor A2a [3] and on Adenosine receptor A2b were 3 nM and 388 nM, respectively.
For the compound `CC1=C(C(=O)OC(C)C)C(c2cn[nH]c2)n2c(nc3ccccc32)N1` (racemic), the inhibition was 6% in data set [2] and 40% on Adenosine receptor A2a [4]. For the same compound, the Ki on Adenosine receptor A1 was 8.3 nM; at Adenosine receptor A2b it was 340 nM.
For the compound `CCOC(=O)C1=C(C)Nc2nc3ccccc3n2C1c1cn[nH]c1` (racemic), the inhibition in [2] came out at 1%; on Adenosine receptor A2a [4], 28%. The Ki came to 14.8 nM at Adenosine receptor A1 and 92.6 nM on Adenosine receptor A2b.

Values taken from ChEMBL document CHEMBL4616721, “Nitrogen-Walk Approach to Explore Bioisosteric Replacements in a Series of Potent A2B Adenosine Receptor Antagonists” (J Med Chem, 2020).
